Consider 14 molecules from patent US4668705A, “Sebosuppressive preparations containing alkoxyaryl alkanols” (Henkel Kommanditgesellschaft auf Aktien, priority 1983, dated 1987).

One series deals with seborrhea of the scalp. Particulars: prior art, cited from earlier work; for antiseborrheic effect of known additives: additives to cosmetic preparations.
Series [1] concerns brown skin surface lipid of the rats. The series can be described thus: Antiseborrheic effect in animal test: browning of the shaved back of rats (skin surface lipid), visual assessment under double blind conditions. In kind it is in vivo, male Wistar rats. The arrangement: key to Evaluation method 2 (points difference between righthand and lefthand side) / Evaluation method 3 (difference in intensity of brown shades vs untreated control animals): ++: very large (≥99.9% probability); +: significant (≥95% probability); 0: minimal (95% probability). The following applies: for reduction of sebum (threshold statement in text): at the concentration tested in the Table. From the text: The antiseborrheic effect was closely studied using the animal tests described in the following: The test animals were male Wistar rats having a body weight of 220 to 230 g at the beginning of the tests. The degree of browning on the shaved back of the rats was visually assessed. Browning is produced by the brown skin surface lipid of the rats. This test is based on the observation that young male and female rats washed with surfactant solution or with a lipid solvent and also male rats systematically treated with oestrogen only have the normal light, pink-colored skin after shaving. At the same time, only comparatively very small quantities of lipids can be extracted from the shaved hairs. In order to assess effectiveness, the test substances in solution in alcohol were each brushed onto half the back of 6 rats. The other half was only treated with the solvent minus active substances. Over the test period of 14 days, the test substances were applied once daily for a total of 9 days. A group of 6 rats which remained completely untreated was used for further control. At the end of the test, the animals were shaved on their back and sides and were visually assessed independently by an examination panel of 6 people under double blind conditions. The first criterion evaluated was whether the majority of examiners correctly recognized the treated side, differentiation being carried out as follows: The second criterion evaluated was the difference between the righthand side and the lefthand side, each examiner having to award 1 point per animal on the following basis: darker side--1 point lighter side--0 point and both sides the same--0.5 point Significant differences between the untreated and treated sides in the second method of evaluation indicate the local effectiveness of a substance. The third criterion evaluated was the difference in intensity between the shades of brown using the following scale: 3 points--dark brown 2 points--medium brown 1 point--light brown 0 points--no browning In the third method of evaluation, total point differences are compared between the untreated control animals and the treated and untreated sides of the test animals, significant differences between the control animals and the treated side of the test animals again indicating the effectiveness of a substance. There is generally also a distinct difference between the untreated and treated sides of the same test animals. However, this difference is not always as clear as that between the control animals and the treated sides, for which there may be various reasons, such as mechanical transfer of substance from one side to the other or solvent influence. The following scheme was used for differentiating the effects according to evaluation methods 2 and 3: The sebum reduction is calculated from the points difference by working out the quotient between the points difference ΔP and the number of points for the control group Pk, and expressing the value obtained in percent. Sebum reduction=(ΔP/Pk ·100 [%] […]

The mark [2] stands for this setting: Conc. 0.5%, topical, once daily, 9 applications in 14 days.
The mark [3] stands for this setting: Rattus norvegicus, 336 h, Conc. 0.5%, topical, once daily, 9 applications in 14 days, ΔP/Pk × 100, read-out: Sebum reduction.
[4] abbreviates: Conc. 0.2%, topical, once daily, 9 applications in 14 days.
The mark [5] stands for this setting: Rattus norvegicus, 336 h, Conc. 0.2%, topical, once daily, 9 applications in 14 days, ΔP/Pk × 100, read-out: Sebum reduction.
[6] abbreviates: Conc. 1.0%, topical, once daily, 9 applications in 14 days.
[7] abbreviates: Rattus norvegicus, 336 h, Conc. 1.0%, topical, once daily, 9 applications in 14 days, ΔP/Pk × 100, read-out: Sebum reduction.
Setting [8] is: Conc. 0.1%, topical, once daily, 9 applications in 14 days.

On to mercury, for which the “antiseborrheic effect of known additives” value with seborrhea of the scalp is on record as “without giving really satisfactory results in regard to efficacy”.

As for `CCCCCCCCCCCCCCOc1cccc(CO)c1` [I, 3-tetradecyloxybenzyl alcohol], in series [1] (setting [2]), the “Evaluation method 1 (percentage of examiners noticing an effect, treated side recognized)” value is recorded as “++ (100%)”; the “Evaluation method 2 (points difference between righthand and lefthand side)” value is “++ (very large (≥99.9% probability))”; the “Evaluation method 3 (difference in intensity of brown shades vs untreated control animals)” value is “++ (very large (≥99.9% probability))”. In series [1] (setting [3]), the inhibition in vivo at 0.5 % stood at 22%.

`CCCCCCOc1ccc(CO)cc1` [E, 4-hexyloxybenzyl alcohol]: in series [1] (setting [4]), the “Evaluation method 1 (percentage of examiners noticing an effect, treated side recognized)” value is recorded as “++ (100%)”; the “Evaluation method 2 (points difference between righthand and lefthand side)” value is on record as “++ (very large (≥99.9% probability))”; the “Evaluation method 3 (difference in intensity of brown shades vs untreated control animals)” value is on record as “++ (very large (≥99.9% probability))”. Also, in series [1] (setting [5]), the inhibition in vivo at 0.2 % came to 92%.

In the case of `S1SSSSSSS1` [sulfur], the “antiseborrheic effect of known additives” value in the series on seborrhea of the scalp is listed as “without giving really satisfactory results in regard to efficacy”. Moreover, in the series with seborrhea of the scalp (after prolonged use), the “side effects of known additives” value is on record as “frequently produce side effects after prolonged use”.

Turning to `OCc1ccccc1` [Benzyl alcohol, reference compound], in series [1] (setting [6]), the “Evaluation method 1 (percentage of examiners noticing an effect, treated side recognized)” value is given as 0 (≤50%); the “Evaluation method 2 (points difference between righthand and lefthand side)” value was determined as 0; the “Evaluation method 3 (difference in intensity of brown shades vs untreated control animals)” value turned out to be 0. Moreover, the inhibition in vivo at 1 % in series [1] (setting [7]) turned out to be 0%.

As to `CCCCCCCCOc1ccc(CO)cc1` [F, 4-octyloxybenzyl alcohol], in series [1] (setting [4]), the “Evaluation method 1 (percentage of examiners noticing an effect, treated side recognized)” value is on record as “++ (100%)”; the “Evaluation method 2 (points difference between righthand and lefthand side)” value is recorded as “++ (very large (≥99.9% probability))”; the “Evaluation method 3 (difference in intensity of brown shades vs untreated control animals)” value is listed as “++ (very large (≥99.9% probability))”. The inhibition in vivo at 0.2 % in series [1] (setting [5]) was 95%.

As for `CCCCCCCCCCOc1cccc(CO)c1` [K, 3-decyloxybenzyl alcohol], in series [1] (setting [2]), the “Evaluation method 1 (percentage of examiners noticing an effect, treated side recognized)” value is on record as “++ (100%)”; the “Evaluation method 2 (points difference between righthand and lefthand side)” value is “++ (very large (≥99.9% probability))”; the “Evaluation method 3 (difference in intensity of brown shades vs untreated control animals)” value is given as “++ (very large (≥99.9% probability))”. Also, the inhibition in vivo at 0.5 % in series [1] (setting [3]) is 53%. For the same molecule, the “reduction of sebum (threshold statement in text)” value (shortened to “reduction of sebum”) in series [1] is listed as “at least 50%”.

Take `CCCCCCCCCCCCCCOc1ccc(CO)cc1` [A, 4-tetradecyloxybenzyl alcohol]: in series [1] (setting [2]), the “Evaluation method 1 (percentage of examiners noticing an effect, treated side recognized)” value was “++ (100%)”; the “Evaluation method 2 (points difference between righthand and lefthand side)” value was “++ (very large (≥99.9% probability))”; the “Evaluation method 3 (difference in intensity of brown shades vs untreated control animals)” value is “++ (very large (≥99.9% probability))”. Besides, in series [1] (setting [3]), the inhibition in vivo at 0.5 % amounted to 97%.

For the molecule `CCCCCCCCCCOc1ccccc1CO` [G, 2-decyloxybenzyl alcohol], in series [1] (setting [2]), the “Evaluation method 1 (percentage of examiners noticing an effect, treated side recognized)” value is “++ (100%)”; the “Evaluation method 2 (points difference between righthand and lefthand side)” value is recorded as “++ (very large (≥99.9% probability))”; the “Evaluation method 3 (difference in intensity of brown shades vs untreated control animals)” value is “++ (very large (≥99.9% probability))”. The inhibition in vivo at 0.5 % in series [1] (setting [3]) turned out to be 20%.

As for `CCCCCCCCCCOc1ccc(CO)cc1` [B, 4-decyloxybenzyl alcohol], in series [1] (setting [4]), the “Evaluation method 1 (percentage of examiners noticing an effect, treated side recognized)” value is given as “++ (100%)”; the “Evaluation method 2 (points difference between righthand and lefthand side)” value was “++ (very large (≥99.9% probability))”; the “Evaluation method 3 (difference in intensity of brown shades vs untreated control animals)” value is “++ (very large (≥99.9% probability))”. Besides, the inhibition in vivo at 0.2 % in series [1] (setting [5]) worked out at 95%.

For the molecule `CCCCCCCCCCCCOc1ccc(CO)cc1` [D, 4-dodecyloxybenzyl alcohol], in series [1] (setting [8]), the “Evaluation method 1 (percentage of examiners noticing an effect, treated side recognized)” value was “++ (100%)”; the “Evaluation method 2 (points difference between righthand and lefthand side)” value is recorded as “++ (very large (≥99.9% probability))”; the “Evaluation method 3 (difference in intensity of brown shades vs untreated control animals)” value is given as “++ (very large (≥99.9% probability))”. In addition, in series [1] (Rattus norvegicus, 336 h, Conc. 0.1%, topical, once daily, 9 applications in 14 days, ΔP/Pk × 100, read-out: Sebum reduction), the inhibition in vivo at 0.1 % stood at 88%.

With “3,7,11-trimethyl-2,6,10-dodecatrien-1-ol ethyl ether and/or acetate”, the “antiseborrheic effect of known additives” value in the series with seborrhea of the scalp is on record as “only a very weak antiseborrheic effect”.

With `CCCCCCCCCCCCOc1cccc(CO)c1` [H, 3-dodecyloxybenzyl alcohol], in series [1] (setting [2]), the “Evaluation method 1 (percentage of examiners noticing an effect, treated side recognized)” value was “++ (100%)”; the “Evaluation method 2 (points difference between righthand and lefthand side)” value was “++ (very large (≥99.9% probability))”; the “Evaluation method 3 (difference in intensity of brown shades vs untreated control animals)” value is given as “++ (very large (≥99.9% probability))”. Further, the inhibition in vivo at 0.5 % in series [1] (setting [3]) was found to be 69%. The “reduction of sebum” value in series [1] is recorded as “at least 50%”.

As to `CCCCCCCCCCOc1ccc(CCO)cc1` [C, 2-(4-decyloxyphenyl)-ethanol], in series [1] (setting [6]), the “Evaluation method 1 (percentage of examiners noticing an effect, treated side recognized)” value is “++ (100%)”; the “Evaluation method 2 (points difference between righthand and lefthand side)” value was “++ (very large (≥99.9% probability))”; the “Evaluation method 3 (difference in intensity of brown shades vs untreated control animals)” value is “++ (very large (≥99.9% probability))”. In addition, the inhibition in vivo at 1 % in series [1] (setting [7]) turned out to be 56%. Moreover, the “reduction of sebum” value in series [1] was “at least 50%”.
